In BindingDB's records for doi:10.1021/jm00174a016 (University of Paris, 1991):
Where a SMILES comes first, the peptide text is derived from it. [ ]: non-standard residue; d: D form. The star is where a group is joined. sY = N[C@@H](Cc1ccc(OS(=O)(=O)O)cc1)C(=O)O; Nle = CCCC[C@H](N)C(=O)O; Orn = NCCC[C@H](N)C(=O)O; Cbz = O=C(OCc1ccccc1)*; Boc = CC(C)(C)OC(=O)*

How the values were obtained:
[1] = target: Gastrin/cholecystokinin type B receptor (Cavia porcellus); assay: Apparent affinity to inhibit binding of [3H]pCCK-8 to Cholecystokinin type B receptor of guinea pig brain membranes
[2] = target: Gastrin/cholecystokinin type B receptor (Cavia porcellus); assay: as above; remark: listed apart in the source

| SMILES | Ki [1] [nM] | Ki [2] [nM] |
| --- | --- | --- |
| CC(C)(C)OC(=O)N[C@@H](Cc1c[nH]c2ccccc12)C(=O)N[C@@H](CCCNC(=O)OCc1ccccc1)C(=O)N[C@@H](CC(=O)O)C(N)=O (Boc-Trp-[Orn](Cbz)-Asp-NH2) | 4200 | – |
| CC(C)(C)OC(=O)N[C@@H](Cc1c[nH]c2ccccc12)C(=O)N[C@@H](CCCNC(=O)OCc1ccccc1)C(=O)N[C@@H](CC(=O)O)C(=O)N[C@@H](Cc1ccccc1)C(N)=O (Boc-W[Orn](Cbz)DF-NH2) | 580 | – |
| CC(C)(C)OC(=O)N[C@@H](Cc1c[nH]c2ccccc12)C(=O)N[C@@H](CCCN)C(=O)N[C@@H](CC(=O)O)C(=O)N[C@@H](Cc1ccccc1)C(N)=O (Boc-W[Orn]DF-NH2) | – | 1400 |
| CCCC[C@H](NC(=O)[C@H](Cc1ccc(OS(=O)(=O)O)cc1)NC(=O)OC(C)(C)C)C(=O)NCC(=O)N[C@@H](Cc1c[nH]c2ccccc12)C(=O)N[C@@H](CCCNC(=O)OCc1ccccc1)C(=O)N[C@@H](CC(=O)O)C(N)=O (Boc-[sY][Nle]GW[Orn](Cbz)D-NH2) | 54 | – |
| CC(C)(C)OC(=O)NCCC[C@H](NC(=O)[C@H](Cc1c[nH]c2ccccc12)NC(=O)OC(C)(C)C)C(=O)N[C@@H](CC(=O)O)C(N)=O [3-{5-tert-Butoxycarbonylamino-2-[2-tert-butoxycarbonylamino-3-(1H-indol-3-yl)-propionylamino]-pentanoylamino}-succinamic acid] (Boc-Trp-[Orn](Boc)-Asp-NH2) | – | 4300 |
